The values below are quoted from earlier work in patent publication US20090023643A1, “Methods For Treating Acute Myocardial Infarction By Administering Calcitonin Gene Related Peptide And Compositions Containing The Same” (VasoGenix Pharmaceuticals, Inc., priority 2004, published 2009).

One data set concerns IL-12. The note with it: Torii et al 1997.
The test system of the next data set is TNF-α. The note with it: lipopolysaccharide induced, macrophages; Feng et al 1997.
For another data set, the system named is IL-1β. The settings on record: Torii et al 1997.
A further data set deals with B7-2. The note with it: Ashana et al 1995; Torii et al 1997.
The subject of the next data set is IL-7. The note with it: Fernandez et al 2000.
The subject of another data set is IL-10. The note with it: Torii et al 1997.
The subject of a further data set is IL-16. The note with it: Dunzendorfer et al 2002-2003.
Data set [1] has as its system IGF-1 (insulin-like growth factor-1). The note with it: R. Zfoncea et al 1997.

Regarding CGRP, the “CGRP activity: cytokines inhibited or suppressed, IL-12; benefits” value in the data set on IL-12 is recorded as “Suppresses Natural Killer Cell Stimulating factor (NKSF)”. Besides, the “CGRP activity: cytokines inhibited or suppressed, TNF-α; benefits” value in the data set on TNF-α is reported as “Inhibits lipopolysaccharide induced TNF-α in macrophages”. Besides, in the data set with IL-1β, the “CGRP activity: cytokines inhibited or suppressed, IL-1β; benefits” value is “Inhibits proliferation of T-cells”. The “CGRP activity: cytokines inhibited or suppressed, B7-2; benefits” value in the data set on B7-2 is “Inhibits Granulocyte-Macrophage Colony”. Besides, in the data set on IL-7, the “CGRP activity: cytokines inhibited or suppressed, IL-7; benefits” value is “Inhibits pre B-cell development and T-cell development”. Besides, the “CGRP activity: induced anti-inflammatory cytokines, IL-10; benefits” value in the data set on IL-10 is given as “Inhibits monocyte inflammation”. In the data set with IL-16, the “CGRP activity: cytokines inhibited or suppressed, IL-16; benefits” value is given as “Inhibits macrophage chemotaxis”. Moreover, the “expression of IGF-1” value in data set [1] is reported as “increases expression of IGF-1”.
